Data: patent publication US20260224588A1, “BENZODIAZEPINONE-DERIVED INHIBITORS OF EGFR AND HER2” (The Research Foundation for the State University of New York, priority 2023, published 2026)
Like-named read-outs stand apart in the source and are kept apart here.

What was measured:
[1] = target: CAMK2G (Homo sapiens, UniProt Q13555); experiment: KINOMEscan; assay type: binding; conditions: 1 μM of compound 4; read-out: POC
[2] = target: PIK3C2G (Homo sapiens, UniProt O75747); experiment: KINOMEscan; assay type: binding; conditions: 1 μM of compound 4; read-out: POC
[3] = target: T1, EPHA2 (Homo sapiens, UniProt P29317); experiment: KINOMEscan; assay type: binding; conditions: 1 μM of compound 4; read-out: POC
T1 construct: purchased Eurofins DiscoverX (KINOMEscan service)

[4] = target: T2, GCN2(Kin.Dom.2 + S808G) (Homo sapiens, UniProt Q9P2K8, S808G); experiment: KINOMEscan; assay type: binding; conditions: 1 μM of compound 4; read-out: POC
T2 construct: GCN2(Kin.Dom.2 + S808G); purchased Eurofins DiscoverX Corporation

[5] = target: PLK4 (Homo sapiens, UniProt O00444); experiment: KINOMEscan; assay type: binding; conditions: 1 μM of compound 4; read-out: POC
[6] = target: T3, TAOK1 (Homo sapiens, UniProt Q7L7X3); experiment: KINOMEscan; assay type: binding; conditions: 1 μM of compound 4; read-out: POC
T3 construct: purchased Eurofins DiscoverX Corporation

[7] = target: KIT(D816V) (Homo sapiens, UniProt P10721, D816V); experiment: KINOMEscan; assay type: binding; conditions: 1 μM of compound 4; read-out: POC
[8] = target: PIK3CA(M1043I) (Homo sapiens, UniProt P42336, M1043I); experiment: KINOMEscan; assay type: binding; conditions: 1 μM of compound 4; read-out: POC
[9] = target: T4, TIE2 (Homo sapiens, UniProt Q02763); experiment: KINOMEscan; assay type: binding; conditions: 1 μM of compound 4; read-out: POC
T4 construct: purchased Eurofins DiscoverX Corporation

[10] = target: T5, TNK1 (Homo sapiens, UniProt Q13470); experiment: KINOMEscan; assay type: binding; conditions: 1 μM of compound 4; read-out: POC
T5 construct: purchased Eurofins DiscoverX Corporation

[11] = target: T6, SNRK (Homo sapiens, UniProt Q9NRH2); experiment: KINOMEscan; assay type: binding; conditions: 1 μM of compound 4; read-out: POC
T6 construct: purchased Eurofins DiscoverX (KINOMEscan service)

[12] = target: T7, RIPK4 (Homo sapiens, UniProt P57078); experiment: KINOMEscan; assay type: binding; conditions: 1 μM of compound 4; read-out: POC
T7 construct: purchased Eurofins DiscoverX Corporation (KINOMEscan screening service)

[13] = test system: L858R EGFR mutant Ba/F3 cells; experiment: Ba/F3 cellular antiproliferative experiments; assay type: cell-based; conditions: Mus musculus, BaF3, 72 h, Ba/F3, 72 hours; read-out: Anti-proliferative EC50 ± SE, LR
Description: (§1) Ba/F3 Cellular Antiproliferative Experiments. The parental Ba/F3 cells was a generous gift from the laboratory of Dr. David Weinstock (in 2014), Dr. Pasi Jänne (2020) and was used to generate the wildtype EGFR, wildtype HER2, L858R, and L858R/T790M EGFR mutant Ba/F3 cells. These cells were previously characterized as described. All Ba/F3 cells were cultured in RPMI1640 media with 10% fetal bovine serum and 1% penicillin and streptomycin. All cell lines were tested negative for Mycoplasma using Mycoplasma Plus PCR Primer Set (Agilent) and were passaged and/or used for no longer than 4 weeks for all experiments. Assay reagents were purchased from MilliporeSigma (Cat #R7017-5G). Ba/F3 cells were plated and treated with increasing concentrations of inhibitors in triplicate for 72 hours. Compounds were dispensed using the Tecan D300e Digital Dispenser. Cellular growth or the inhibition of growth was assessed by resazurin viability assay. All experiments were repeated at least 3 times and values were reported as an average of n=3 with standard deviation.

[14] = test system: wildtype HER2 Ba/F3 cells; experiment: Ba/F3 cellular antiproliferative experiments; assay type: cell-based; conditions: Mus musculus, BaF3; Ba/F3, 72 hours; read-out: Anti-proliferative EC50 ± SE, HER2
Description: as §1

[15] = test system: L858R/T790M EGFR mutant Ba/F3 cells; experiment: Ba/F3 cellular antiproliferative experiments; assay type: cell-based; conditions: Ba/F3, 72 hours, read-out: Anti-proliferative EC50 ± SE, LR/TM
Description: as §1

[16] = target: IRAK3 (Homo sapiens, UniProt Q9Y616); experiment: KINOMEscan; assay type: binding; conditions: 1 μM of compound 4; read-out: POC
[17] = target: T8, PAK2 (Homo sapiens, UniProt Q13177); experiment: KINOMEscan; assay type: binding; conditions: 1 μM of compound 4; read-out: POC
T8 construct: purchased Eurofins DiscoverX Corporation (KINOMEscan)

[18] = target: T9, ROCK1 (Homo sapiens, UniProt Q13464); experiment: KINOMEscan; assay type: binding; conditions: 1 μM of compound 4; read-out: POC
T9 construct: purchased Eurofins DiscoverX Corporation (KINOMEscan screening service)

[19] = target: IKK-beta (Homo sapiens, UniProt O14920); experiment: KINOMEscan; assay type: binding; conditions: 1 μM of compound 4; read-out: POC
[20] = target: T10, STK35 (Homo sapiens, UniProt Q8TDR2); experiment: KINOMEscan; assay type: binding; conditions: 1 μM of compound 4; read-out: POC
T10 construct: purchased Eurofins DiscoverX (KINOMEscan service)

[21] = target: ALK (Homo sapiens, UniProt Q9UM73); experiment: KINOMEscan; assay type: binding; conditions: 1 μM of compound 4; read-out: POC
[22] = target: T11, SRPK1 (Homo sapiens, UniProt Q96SB4); experiment: KINOMEscan; assay type: binding; conditions: 1 μM of compound 4; read-out: POC
T11 construct: purchased Eurofins DiscoverX (KINOMEscan service)

[23] = target: T12, WNK4 (Homo sapiens, UniProt Q96J92); experiment: KINOMEscan; assay type: binding; conditions: 1 μM of compound 4; read-out: POC
T12 construct: purchased Eurofins DiscoverX

[24] = target: T13, ERBB3 (Homo sapiens, UniProt P21860); experiment: KINOMEscan; assay type: binding; conditions: 1 μM of compound 4; read-out: POC
T13 construct: purchased Eurofins DiscoverX Corporation

[25] = target: CSNK1D (Homo sapiens, UniProt P48730); experiment: KINOMEscan; assay type: binding; conditions: 1 μM of compound 4; read-out: POC
[26] = target: PRKG2 (Homo sapiens, UniProt Q13237); experiment: KINOMEscan; assay type: binding; conditions: 1 μM of compound 4; read-out: POC
[27] = target: CSNK1G1 (Homo sapiens, UniProt Q9HCP0); experiment: KINOMEscan; assay type: binding; conditions: 1 μM of compound 4; read-out: POC
[28] = target: T14, ERK1 (Homo sapiens, UniProt P27361); experiment: KINOMEscan; assay type: binding; conditions: 1 μM of compound 4; read-out: POC
T14 construct: purchased Eurofins DiscoverX Corporation

[29] = target: T15, EPHA5 (Homo sapiens, UniProt P54756); experiment: KINOMEscan; assay type: binding; conditions: 1 μM of compound 4; read-out: POC
T15 construct: purchased Eurofins DiscoverX (KINOMEscan service)

[30] = target: AKT2 (Homo sapiens, UniProt P31751); experiment: KINOMEscan; assay type: binding; conditions: 1 μM of compound 4; read-out: POC
[31] = target: MST1 (Homo sapiens, UniProt Q13043); experiment: KINOMEscan; assay type: binding; conditions: 1 μM of compound 4; read-out: POC
[32] = target: LATS1 (Homo sapiens, UniProt O95835); experiment: KINOMEscan; assay type: binding; conditions: 1 μM of compound 4; read-out: POC

T6 sequence (Q9NRH2 whole entry): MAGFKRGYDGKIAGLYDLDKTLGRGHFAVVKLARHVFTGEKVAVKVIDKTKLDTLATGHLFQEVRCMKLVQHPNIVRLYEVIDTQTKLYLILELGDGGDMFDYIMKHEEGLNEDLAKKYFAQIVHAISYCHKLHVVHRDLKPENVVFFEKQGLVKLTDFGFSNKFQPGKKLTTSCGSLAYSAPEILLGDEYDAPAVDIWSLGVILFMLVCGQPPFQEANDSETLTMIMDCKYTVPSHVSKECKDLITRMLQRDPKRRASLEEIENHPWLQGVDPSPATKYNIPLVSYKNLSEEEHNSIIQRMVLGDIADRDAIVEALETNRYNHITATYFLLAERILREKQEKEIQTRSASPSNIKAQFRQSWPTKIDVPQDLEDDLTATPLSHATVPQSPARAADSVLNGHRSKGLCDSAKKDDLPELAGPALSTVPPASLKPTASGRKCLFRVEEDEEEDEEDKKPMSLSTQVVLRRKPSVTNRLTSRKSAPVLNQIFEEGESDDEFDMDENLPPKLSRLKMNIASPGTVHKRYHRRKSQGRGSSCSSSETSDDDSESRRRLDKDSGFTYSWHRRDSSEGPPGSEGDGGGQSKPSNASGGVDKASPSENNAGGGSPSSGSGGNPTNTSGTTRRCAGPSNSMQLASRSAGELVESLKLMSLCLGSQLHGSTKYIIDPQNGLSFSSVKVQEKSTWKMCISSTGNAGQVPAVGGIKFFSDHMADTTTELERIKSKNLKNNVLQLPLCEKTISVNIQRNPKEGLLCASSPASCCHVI
Sequence of IRAK3 (Q9Y616 whole entry): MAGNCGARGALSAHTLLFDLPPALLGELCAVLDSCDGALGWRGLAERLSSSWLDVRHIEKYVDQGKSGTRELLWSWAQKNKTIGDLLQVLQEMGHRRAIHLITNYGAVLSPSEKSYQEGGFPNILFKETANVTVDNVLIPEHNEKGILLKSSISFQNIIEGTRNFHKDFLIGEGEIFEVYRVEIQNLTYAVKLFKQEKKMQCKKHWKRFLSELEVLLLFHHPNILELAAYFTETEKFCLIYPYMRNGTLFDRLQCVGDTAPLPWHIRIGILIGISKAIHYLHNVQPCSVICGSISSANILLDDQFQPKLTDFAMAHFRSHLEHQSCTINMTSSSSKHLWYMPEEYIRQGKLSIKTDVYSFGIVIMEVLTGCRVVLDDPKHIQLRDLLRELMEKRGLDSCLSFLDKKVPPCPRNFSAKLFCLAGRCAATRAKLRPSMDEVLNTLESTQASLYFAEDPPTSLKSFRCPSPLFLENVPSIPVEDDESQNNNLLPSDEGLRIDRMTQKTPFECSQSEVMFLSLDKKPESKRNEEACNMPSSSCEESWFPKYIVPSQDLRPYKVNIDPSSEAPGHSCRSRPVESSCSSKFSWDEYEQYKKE
T2 sequence (Q9P2K8 590-1001 S808G limits assumed): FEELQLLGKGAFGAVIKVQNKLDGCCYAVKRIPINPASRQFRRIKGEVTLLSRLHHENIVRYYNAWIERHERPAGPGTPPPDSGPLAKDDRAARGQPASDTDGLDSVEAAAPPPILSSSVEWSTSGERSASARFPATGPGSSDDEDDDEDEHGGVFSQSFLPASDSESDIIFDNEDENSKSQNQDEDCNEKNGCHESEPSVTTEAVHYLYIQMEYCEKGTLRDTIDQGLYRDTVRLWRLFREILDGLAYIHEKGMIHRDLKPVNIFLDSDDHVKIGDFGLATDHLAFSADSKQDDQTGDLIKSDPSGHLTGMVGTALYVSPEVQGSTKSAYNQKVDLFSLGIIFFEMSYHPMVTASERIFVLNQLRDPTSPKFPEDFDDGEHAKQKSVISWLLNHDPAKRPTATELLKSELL
Sequence of KIT(D816V) (P10721 26-976 D816V): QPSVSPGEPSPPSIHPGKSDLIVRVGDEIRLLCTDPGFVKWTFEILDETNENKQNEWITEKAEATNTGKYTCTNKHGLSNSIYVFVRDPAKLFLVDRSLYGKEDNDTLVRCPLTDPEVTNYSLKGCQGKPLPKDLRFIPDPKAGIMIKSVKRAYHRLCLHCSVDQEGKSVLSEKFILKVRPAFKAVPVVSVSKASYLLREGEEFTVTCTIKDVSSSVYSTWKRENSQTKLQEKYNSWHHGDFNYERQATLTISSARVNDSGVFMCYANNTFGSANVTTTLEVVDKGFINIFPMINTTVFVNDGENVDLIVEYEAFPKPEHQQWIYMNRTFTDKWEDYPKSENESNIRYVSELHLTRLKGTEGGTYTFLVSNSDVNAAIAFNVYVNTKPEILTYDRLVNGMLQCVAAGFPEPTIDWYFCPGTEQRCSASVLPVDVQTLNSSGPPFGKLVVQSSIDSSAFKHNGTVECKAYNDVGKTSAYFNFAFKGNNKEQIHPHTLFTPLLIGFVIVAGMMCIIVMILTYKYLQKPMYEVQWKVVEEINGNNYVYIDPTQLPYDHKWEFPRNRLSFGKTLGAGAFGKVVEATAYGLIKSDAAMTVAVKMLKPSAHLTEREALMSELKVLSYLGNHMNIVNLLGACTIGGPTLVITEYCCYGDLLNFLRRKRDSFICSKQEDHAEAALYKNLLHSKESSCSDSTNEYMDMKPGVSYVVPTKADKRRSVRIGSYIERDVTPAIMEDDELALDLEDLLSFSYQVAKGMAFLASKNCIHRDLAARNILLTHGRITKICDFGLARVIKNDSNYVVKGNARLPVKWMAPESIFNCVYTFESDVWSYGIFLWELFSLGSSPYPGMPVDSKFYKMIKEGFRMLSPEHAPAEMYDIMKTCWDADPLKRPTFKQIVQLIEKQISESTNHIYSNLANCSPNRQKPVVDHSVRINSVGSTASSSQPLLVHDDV
Sequence of ALK (Q9UM73 19-1620): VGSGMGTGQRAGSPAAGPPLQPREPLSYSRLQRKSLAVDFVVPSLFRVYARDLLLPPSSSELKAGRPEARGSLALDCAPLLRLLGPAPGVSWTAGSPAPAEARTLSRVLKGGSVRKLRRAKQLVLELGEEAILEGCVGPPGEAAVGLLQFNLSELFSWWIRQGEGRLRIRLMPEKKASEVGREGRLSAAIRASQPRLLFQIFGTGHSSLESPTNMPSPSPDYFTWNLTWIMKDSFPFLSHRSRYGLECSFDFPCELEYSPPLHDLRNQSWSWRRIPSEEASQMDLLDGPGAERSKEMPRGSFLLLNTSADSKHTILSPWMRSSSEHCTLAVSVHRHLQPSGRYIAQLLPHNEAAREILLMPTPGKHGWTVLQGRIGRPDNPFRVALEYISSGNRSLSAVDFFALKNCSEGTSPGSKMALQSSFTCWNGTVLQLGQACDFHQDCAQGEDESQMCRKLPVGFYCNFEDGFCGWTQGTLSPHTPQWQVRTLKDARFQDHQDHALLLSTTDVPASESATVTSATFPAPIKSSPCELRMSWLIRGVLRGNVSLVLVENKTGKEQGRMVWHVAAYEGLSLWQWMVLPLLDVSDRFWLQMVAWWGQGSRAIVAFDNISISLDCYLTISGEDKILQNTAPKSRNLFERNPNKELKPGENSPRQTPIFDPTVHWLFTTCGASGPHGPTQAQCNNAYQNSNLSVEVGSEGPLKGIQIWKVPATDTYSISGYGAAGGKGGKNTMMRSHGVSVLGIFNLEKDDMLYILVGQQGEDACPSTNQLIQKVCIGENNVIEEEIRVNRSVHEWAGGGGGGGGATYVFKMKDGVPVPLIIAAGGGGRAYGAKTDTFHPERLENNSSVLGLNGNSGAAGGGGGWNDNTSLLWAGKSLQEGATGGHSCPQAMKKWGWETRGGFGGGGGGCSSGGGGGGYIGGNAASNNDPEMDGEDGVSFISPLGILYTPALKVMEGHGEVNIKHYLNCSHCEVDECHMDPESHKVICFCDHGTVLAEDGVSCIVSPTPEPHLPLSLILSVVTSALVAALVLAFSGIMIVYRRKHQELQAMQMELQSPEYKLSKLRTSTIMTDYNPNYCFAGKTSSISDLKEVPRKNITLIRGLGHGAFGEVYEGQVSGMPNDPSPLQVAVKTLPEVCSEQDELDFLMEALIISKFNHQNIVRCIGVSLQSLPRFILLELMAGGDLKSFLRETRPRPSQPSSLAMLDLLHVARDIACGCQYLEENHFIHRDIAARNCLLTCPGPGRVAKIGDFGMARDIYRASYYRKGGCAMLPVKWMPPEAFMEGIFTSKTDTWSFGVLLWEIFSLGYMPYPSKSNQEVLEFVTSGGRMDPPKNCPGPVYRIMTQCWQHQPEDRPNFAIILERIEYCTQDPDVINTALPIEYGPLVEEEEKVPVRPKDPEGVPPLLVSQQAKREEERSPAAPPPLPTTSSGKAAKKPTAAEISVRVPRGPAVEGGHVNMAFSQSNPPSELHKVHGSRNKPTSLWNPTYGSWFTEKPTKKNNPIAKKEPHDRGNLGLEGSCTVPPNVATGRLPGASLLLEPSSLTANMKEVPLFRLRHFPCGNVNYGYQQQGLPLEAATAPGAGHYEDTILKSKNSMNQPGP
Sequence of PRKG2 (Q13237 whole entry): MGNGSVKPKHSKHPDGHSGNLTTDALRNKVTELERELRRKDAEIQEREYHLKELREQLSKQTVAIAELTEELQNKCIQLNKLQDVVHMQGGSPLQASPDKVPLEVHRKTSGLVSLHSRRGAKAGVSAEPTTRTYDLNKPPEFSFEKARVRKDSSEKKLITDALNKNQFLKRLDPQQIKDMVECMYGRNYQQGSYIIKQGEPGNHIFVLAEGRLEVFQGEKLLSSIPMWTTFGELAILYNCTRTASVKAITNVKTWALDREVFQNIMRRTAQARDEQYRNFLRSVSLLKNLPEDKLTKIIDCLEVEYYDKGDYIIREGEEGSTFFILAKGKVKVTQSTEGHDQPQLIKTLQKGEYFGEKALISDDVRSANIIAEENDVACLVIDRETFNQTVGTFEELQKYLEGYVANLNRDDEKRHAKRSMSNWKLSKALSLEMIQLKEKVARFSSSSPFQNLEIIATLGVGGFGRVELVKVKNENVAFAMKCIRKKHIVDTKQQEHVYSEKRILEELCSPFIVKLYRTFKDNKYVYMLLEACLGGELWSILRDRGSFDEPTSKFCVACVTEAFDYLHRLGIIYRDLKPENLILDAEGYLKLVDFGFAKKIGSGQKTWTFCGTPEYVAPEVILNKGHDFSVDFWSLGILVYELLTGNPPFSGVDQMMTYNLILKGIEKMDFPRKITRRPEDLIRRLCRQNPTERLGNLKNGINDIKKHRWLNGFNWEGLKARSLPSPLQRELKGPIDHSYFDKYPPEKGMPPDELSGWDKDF

## C=CC(=O)Nc1ccc(OC)c(Nc2cc(-c3[nH]c(CC)nc3-c3cccc(NC(=O)c4cccc5c4NC(=O)c4ccccc4N5)c3)ccn2)c1 [Compound 4, N-(3-(5-(2-((5-Acrylamido-2-methoxyphenyl)amino)pyridin-4-yl)-2-ethyl-1H-imidazol-4-yl)phenyl)-11-oxo-10,11-dihydro-5H-dibenzo[b,e][1,4]diazepine-9-carboxamide]
[1]
  remaining binding at 1 µM: 100%
[2]
  remaining binding at 1 µM: 50%
[3]
  remaining binding at 1 µM: 100%
[4]
  remaining binding at 1 µM: 100%
[5]
  remaining binding at 1 µM: 71%
[6]
  remaining binding at 1 µM: 100%
[7]
  remaining binding at 1 µM: 94%
[8]
  remaining binding at 1 µM: 55%
[9]
  remaining binding at 1 µM: 71%
[10]
  remaining binding at 1 µM: 22%
[11]
  remaining binding at 1 µM: 82%
[12]
  remaining binding at 1 µM: 100%
[13]
  EC50: ~200 nM
[14]
  EC50: 1930 ± 1010 nM
[15]
  EC50: 770 ± 390 nM
[15]; Mus musculus, BaF3, 72 h
  EC50: ~750 nM
[16]
  remaining binding at 1 µM: 39%
[17]
  remaining binding at 1 µM: 100%
[18]
  remaining binding at 1 µM: 100%
[19]
  remaining binding at 1 µM: 88%
[20]
  remaining binding at 1 µM: 69%
[21]
  remaining binding at 1 µM: 100%
[22]
  remaining binding at 1 µM: 100%
[23]
  remaining binding at 1 µM: 85%
[24]
  remaining binding at 1 µM: 84%
[25]
  remaining binding at 1 µM: 87%
[26]
  remaining binding at 1 µM: 62%
[27]
  remaining binding at 1 µM: 93%
[28]
  remaining binding at 1 µM: 99%
[29]
  remaining binding at 1 µM: 100%
[30]
  remaining binding at 1 µM: 91%
[31]
  remaining binding at 1 µM: 6%
[32]
  remaining binding at 1 µM: 100%
